Assay results from patent publication US20170014354A1, “ZEAXANTHIN FOR TUMOR TREATMENT” (The New York Eye and Ear Infirmary, priority 2012, published 2017).

How the values were obtained:
C918 = assay: MTT cell viability, C918 uveal melanoma; format: cell-based; settings: vs control; for Cell viability: 48 h, MTT; for reduction of cell viabilities: FIG. 1C
Method: (§1) Each malignant tumor cell line was cultured in Dulbecco's modified Eagle's medium (DMEM, GIBCO, Carlsbad, Calif.) supplemented with 10% fetal bovine serum (FBS, GIBCO). Cells were incubated in a humidified 5% CO2 atmosphere at 37° C. After reaching confluence, cells were detached by trypsin-EDTA solution (GIBCO), diluted 1:4-1:6, plated for subculture and were passaged routinely at a dilution of 1:4-1:6 every 4-6 days.
(§2) All cell lines were tested in triplicates.

M17 = assay: MTT cell viability, M17 uveal melanoma; format: cell-based, human; settings: 48 h, vs control
Method: as §1, §2

[1] = system: uveal melanoma cells (SP6.5); assay: Annexin V-FITC staining apoptosis analysis; format: cell-based
Method: FIG. 3 illustrates the fluorescence photomicrograph of pro-apoptotic effects of zeaxanthin on uveal melanoma cells after annexin V-FTIC staining. Melanoma cells (SP6.5 cell line) were treated by zeaxanthin at a concentration of 100 μM for 24 hr, and the extent of apoptosis was determined by annexin V-FTIC staining. Cells were observed under fluorescence microscope using 492 nm and 530 nm filters for recognizing and detecting FITC.
In these tests, we measured the extent of apoptosis of cells treated with zeaxanthin by annexin V-FITC staining analysis. Specifically, uveal melanoma cells (SP6.5) were plated into 8-well plates at a density of 6×10^4 cells/well. After culturing for 24 hours, cells were treated with zeaxanthin at final concentration of 10, 30, and 100 μM for another 24 hours in a CO2 incubator at 37C. Then the culture medium was aspirated and the cells were washed with the binding buffer in preparation for annexin V-FITC staining analysis. FITC-annexin V was added into each well and the cells were stained for 15 min in the dark, followed by washing with the binding buffer. The cells were then observed under fluorescence microscope using 492 nm and 530 nm filters that facilitate FITC fluorescence detection to measure the extent of apoptosis based on the principle that cell membranes of apoptotic cells were stained bright green in color.

LoVo = assay: MTT cell viability, LoVo colon cancer; format: cell-based; settings: 48 h, vs control
Method: as §1, §2

SP6.5 = assay: Phase-contrast microscopy of treated uveal melanoma cells; format: cell-based; settings: SP6.5, 0, 30 and 100 μM zeaxanthin, 48 hr, 24-well plates
Method: FIGS. 2A, 2B and 2C illustrate the phase-contrast photomicrographs of uveal melanoma cells which have been treated with three different concentrations of zeaxanthin. Uveal melanoma cells (SP6.5 cell line) were seeded into 24-well plates and treated with zeaxanthin at 0 μM (2A), 30 μM (2B), and 100 μM (2C) levels for 48 hr.
Viability of cells treated with zeaxanthin was also visualized in the following tests. In these tests, the same amount of uveal melanoma cells were cultured and treated with zeaxanthin at different concentrations, and the treated cells were examined under microscope. Specifically, the uveal melanoma cell line SP6.5 was seeded into 24-well plates and treated with zeaxanthin at final concentrations of 0 μM, 30 μM, and 100 μM for 48 hr. […] The number of cells alive in FIG. 2A is more than that in FIG. 2B, which in turn is more than that in FIG. 2C.

HCT116 = assay: MTT cell viability, HCT116 colon cancer; format: cell-based; settings: 48 h, vs control
Method: as §1, §2

Hep G2 = assay: MTT cell viability, Hep G2 hepatocellular carcinoma; format: cell-based; settings: 48 h, vs control
Method: as §1, §2

CC1=C(/C=C/C(C)=C/C=C/C(C)=C/C=C/C=C(C)/C=C/C=C(C)/C=C/C2=C(C)C[C@@H](O)CC2(C)C)C(C)(C)C[C@H](O)C1 [zeaxanthin]
Cell viability (C918; C918, 10 μM zeaxanthin): 79 ± 4.1% | reduction of cell viabilities (C918; C918, 10 μM zeaxanthin): about 21% | Cell viability (C918; C918, 30 μM zeaxanthin): 48 ± 2.6% | reduction of cell viabilities (C918; C918, 30 μM zeaxanthin): ~52% | Cell viability (C918; C918, 100 μM zeaxanthin): 12 ± 1.0% | reduction of cell viabilities (C918; C918, 100 μM zeaxanthin): ~88% | Cell viability (M17; M17, 10 μM zeaxanthin): 84 ± 3.9% | Cell viability (M17; M17, 30 μM zeaxanthin): 69 ± 2.5% | Cell viability (M17; M17, 100 μM zeaxanthin): 41 ± 1.0% | annexin V staining of the cell membrane (apoptotic cells) ([1]; SP6.5, 100 μM zeaxanthin, 24 hr, FIG. 3): numerous cells showed staining of the cell membrane with annexin V | extent of apoptosis (annexin V-FITC staining) ([1]; SP6.5, 10, 30 and 100 μM zeaxanthin, 24 hours): apoptosis in uveal melanoma cells induced by zeaxanthin in a dose-dependent manner | Cell viability (LoVo; 10 μM zeaxanthin): 76 ± 3.8% | Cell viability (LoVo; 30 μM zeaxanthin): 51 ± 2.5% | Cell viability (LoVo; 100 μM zeaxanthin): 32 ± 1.6% | number of cells seen under microscope (SP6.5): the number of cells in the culture that could be seen under microscope decreased progressively | Cell viability (HCT116; HCT116, 10 μM zeaxanthin): 67 ± 3.7% | Cell viability (HCT116; HCT116, 30 μM zeaxanthin): 56 ± 2.3% | Cell viability (HCT116; HCT116, 100 μM zeaxanthin): 16 ± 1.4% | Cell viability (Hep G2; Hep G2, 10 μM zeaxanthin): 79 ± 3.7% | Cell viability (Hep G2; Hep G2, 30 μM zeaxanthin): 58 ± 1.8% | Cell viability (Hep G2; Hep G2, 100 μM zeaxanthin): 32 ± 1.2%
